Measurements published in patent US12559505B2, “IDH mutant inhibitor and use thereof” (WIGEN BIOMEDICINE TECHNOLOGY (SHANGHAI) CO., LTD., priority 2020, dated 2026).

Target: T1, IDH R132C (Homo sapiens, UniProt O75874, R132C)
T1 construct: expressed in transfected cells; host or cells: U87 cells
Assay: Detection of 2-HG in supernatant of U87-IDH R132C cells
Type: cell-based
Conditions: 72 h, LC-MS-MS, vs control; for inhibition at 0.001 µM: 1 nM compound, read-out: Inhibition rate of compounds on 2-HG in the supernatant of U87-IDH R132C cells, 1 nM; for inhibition at 0.01 µM: 10 nM compound, read-out: Inhibition rate of compounds on 2-HG in the supernatant of U87-IDH R132C cells, 10 nM; for inhibition at 0.1 µM: 100 nM compound, read-out: Inhibition rate of compounds on 2-HG in the supernatant of U87-IDH R132C cells, 100 nM
Procedure: U87 cells overexpressing the IDH R132C mutation were seeded in a 48-well plate at 50,000 cells/well. After the cells were incubated overnight for adhesion, the supernatant was removed. The cell culture media containing serially diluted compounds were added, and the cells were incubated for 72 h. After 72 h, the cultures were collected and diluted 10-fold with water, and acetonitrile was added to extract the metabolites. The 2-HG content in the cultures was analyzed by LC-MS-MS, and the percentage inhibition of compounds on 2-HG in the supernatant was calculated as compared with the control.

T1 sequence (O75874 whole entry R132C): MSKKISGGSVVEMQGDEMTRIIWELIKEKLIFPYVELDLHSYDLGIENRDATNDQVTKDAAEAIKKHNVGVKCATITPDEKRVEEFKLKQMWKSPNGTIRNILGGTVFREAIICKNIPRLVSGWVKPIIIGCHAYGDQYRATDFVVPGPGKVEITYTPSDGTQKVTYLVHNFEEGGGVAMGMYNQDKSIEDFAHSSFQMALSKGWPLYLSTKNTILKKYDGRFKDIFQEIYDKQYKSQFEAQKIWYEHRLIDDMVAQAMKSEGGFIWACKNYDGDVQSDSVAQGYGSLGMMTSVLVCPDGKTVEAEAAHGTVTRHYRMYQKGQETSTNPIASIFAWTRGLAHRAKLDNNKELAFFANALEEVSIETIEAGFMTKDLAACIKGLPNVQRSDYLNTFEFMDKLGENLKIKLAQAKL

| Structure (SMILES) | inhibition at 0.001 µM [%] | inhibition at 0.01 µM [%] | inhibition at 0.1 µM [%] |
| --- | --- | --- | --- |
| C=CC(=O)N1CCN(C(CC2(C)CC2)c2ccc([C@H](C)Nc3ncc4cnc(=O)n(CC)c4n3)cc2)CC1 (stereo partly drawn) [Compound 131] | 60 to 90 | > 90 | > 90 |
| C=CC(=O)N1CC2(C1)CN(C(CC13CC(C1)C3)c1ccc([C@H](C)Nc3ncc4c(n3)N(CC)C(=O)OC4)cc1)C2 (stereo partly drawn) [Compound 66] | 60 to 90 | > 90 | > 90 |
| C=CC(=O)N1CC2(C1)CN(C(CC1CCC1)c1ccc([C@H](C)Nc3ncc4c(n3)N(CC)C(=O)OC4)cc1)C2 (stereo partly drawn) [Compound 63] | 30 to 60 | > 90 | > 90 |
| C=CC(=O)NC1CCN(C(CC2CC2)c2ccc(C3(Nc4ncc5c(n4)N(CC)C(=O)OC5)CC3)cc2)CC1 (stereo not drawn) [Compound 27] | 30 to 60 | 60 to 90 | > 90 |
| C=CC(=O)N1CCN(C(CC(C)(C)C)c2ccc([C@H](C)Nc3ncc4cnc(=O)n(C(C)C)c4n3)cc2)CC1 (stereo partly drawn) [Compound 124] | 30 to 60 | 60 to 90 | > 90 |
| C=CC(=O)N(C)C1CN(C(CC2CC2)c2ccc([C@H](C)Nc3ncc4c(n3)N(C(C)C)C(=O)OC4)cc2)C1 (stereo partly drawn) [Compound 25] | 30 to 60 | > 90 | > 90 |
| C=CC(=O)N1CCN(C(CC2CC2)c2ccc(C3(Nc4ncc5c(n4)N(CC)C(=O)OC5)CC3)cc2)CC1 (stereo not drawn) [Compound 152] | 30 to 60 | > 90 | > 90 |
| N#Cc1ccnc(N2C(=O)CC[C@H]2C(=O)N(c2cncc(F)c2)[C@H](C(=O)NC2CC(F)(F)C2)c2ccccc2Cl)c1 [Ivosidenib, ivosidenib, reference compound] | < 30 | < 30 | 60 to 90 |
| C=CC(=O)N1CCN(C(CC2(C)CC2)c2ccc([C@H](C)Nc3ncc4c(n3)N(CC)C(=O)OC4)cc2)CC1 (stereo partly drawn) [Compound 156] | 60 to 90 | > 90 | > 90 |
| C=CC(=O)N1CCN(C(CC2CC2)c2ccc([C@H](C)Nc3ncc4cnc(=O)n(CC)c4n3)cc2)CC1 (stereo partly drawn) [Compound 114] | 60 to 90 | > 90 | > 90 |
| C=CC(=O)NC1CCN(C(CC2CC2)c2ccc([C@H](C)Nc3ncc4c(n3)N(C(C)C)C(=O)OC4)cc2)CC1 (stereo partly drawn) [Compound 22] | < 30 | 60 to 90 | > 90 |
| C=CC(=O)N1CC2(C1)CN(C(CC1CC1)c1ccc(C3(Nc4ncc5c(n4)N(C(C)C)C(=O)OC5)CC3)cc1)C2 (stereo not drawn) [Compound 31] | < 30 | 60 to 90 | > 90 |
| C=CC(=O)N1CCN(C(CC)c2ccc([C@H](C)Nc3ncc4cnc(=O)n(C(C)C)c4n3)cc2)CC1 (stereo partly drawn) [Compound 112] | 60 to 90 | > 90 | > 90 |
| C=CC(=O)N1CC2(C1)CN(C(CC1(C)CC1)c1ccc([C@H](C)Nc3ncc4c(n3)N(CC)C(=O)NC4)cc1)C2 (stereo partly drawn) [Compound 71] | 30 to 60 | > 90 | > 90 |
| C=CC(=O)N1CCN([C@@H](CC2CC2)c2ccc([C@H](C)Nc3ncc4c(n3)N(C(C)C)C(=O)OC4)cc2)CC1 [Compound 147-1] | 60 to 90 | > 90 | > 90 |
| C=CC(=O)N1CCN([C@H](CC2CC2)c2ccc([C@H](C)Nc3ncc4c(n3)N(C(C)C)C(=O)OC4)cc2)CC1 [Compound 147-2] | 30 to 60 | 60 to 90 | > 90 |
| C=CC(=O)N1CCN([C@H](CC23CC(C2)C3)c2ccc([C@H](C)Nc3ncc4c(n3)N(CC)C(=O)OC4)cc2)CC1 [Compound 157-2] | 30 to 60 | 60 to 90 | > 90 |
| C=CC(=O)N1CC2(C1)CN(C(CC1CC1)c1ccc([C@H](C)Nc3ncc4cnc(=O)n(C(C)C)c4n3)cc1)C2 (stereo partly drawn) [Compound 86] | 60 to 90 | 60 to 90 | > 90 |
| C=CC(=O)N1CC2(C1)CN([C@@H](CC13CC(C1)C3)c1ccc([C@H](C)Nc3ncc4c(n3)N(CC)C(=O)NC4)cc1)C2 [Compound 72-1] | 60 to 90 | > 90 | > 90 |
